Drawing on PubChem BioAssay AID1259407 (Chemical Carcinogenesis Research Information System (CCRIS), 2018), this text covers mutagenic call for five compounds.

Calls of active or inactive are those of the source. The rule behind the calls is not given here.

In this data set the test system is CCRIS mutagenicity, Ames/micronucleus/aberration tests. Description: CCRIS mutagenicity studies.
[1] abbreviates: Test System: AMES SALMONELLA TYPHIMURIUM, Strain/Indicator: TA98, Metabolic Activation: NONE, Method: PREINCUBATION
Where [2] appears, read: Test System: AMES SALMONELLA TYPHIMURIUM, Strain/Indicator: TA98, Metabolic Activation: NONE, Method: STANDARD PLATE.
[3] abbreviates: Test System: AMES SALMONELLA TYPHIMURIUM, Strain/Indicator: TA100, Metabolic Activation: NONE, Method: PREINCUBATION
Setting [4] is: Test System: AMES SALMONELLA TYPHIMURIUM, Strain/Indicator: TA100, Metabolic Activation: NONE, Method: STANDARD PLATE.

Consider `O=S(=O)(O)c1ccc(N=Nc2c(O)ccc3ccccc23)cc1`, for which the mutagenic call was “inactive; negative” (Test System: AMES SALMONELLA TYPHIMURIUM, Strain/Indicator: TA98, Metabolic Activation: HAMSTER, LIVER, S-9, Method: PREINCUBATION (PRIVAL METHOD)); “inactive; negative” under setting [1]; “inactive; negative” under setting [2]; “inactive; negative” (Test System: AMES SALMONELLA TYPHIMURIUM, Strain/Indicator: TA98, Metabolic Activation: RAT LIVER S-9, AROCLOR 1254, Method: STANDARD PLATE); “inactive; negative” (Test System: AMES SALMONELLA TYPHIMURIUM, Strain/Indicator: TA98, Metabolic Activation: RAT, LIVER, S-9, PHENOBARBITAL, Method: PREINCUBATION); “inactive; negative” under setting [3]. Also, the mutagenic call was “inactive; negative” under setting [4]; “inactive; negative” (Test System: AMES SALMONELLA TYPHIMURIUM, Strain/Indicator: TA100, Metabolic Activation: RAT LIVER S-9, AROCLOR 1254, Method: STANDARD PLATE); “inactive; negative” (Test System: AMES SALMONELLA TYPHIMURIUM, Strain/Indicator: TA100, Metabolic Activation: RAT, LIVER, S-9, PHENOBARBITAL, Method: PREINCUBATION).

As for `OC(c1ccc(Cl)cc1)(c1cncnc1)c1ccccc1Cl` (stereo not drawn), the mutagenic call is “inactive; negative” (End Point: In vitro chromosomal aberrations, Test System: Human lymphocytes, Metabolic Activation: None); “inactive; negative” (End Point: In vitro chromosomal aberrations, Test System: Human lymphocytes, Metabolic Activation: S-9); “active; positive. statistically significant increase at 24 hr but no effects at 48 or 72” (End Point: In vivo micronucleus, Test System: Bone marrow polychromatic erythrocytes, Species: Mouse, Strain/Sex: Not specified/Male, Route: Oral); “inactive; negative” (End Point: In vivo micronucleus, Test System: Bone marrow polychromatic erythrocytes, Species: Rat, Strain/Sex: Sprague-Dawley (Male and female), Route: Oral); “inactive; negative” (Test System: Ames Salmonella typhimurium, Strain/Indicator: TA98, Metabolic Activation: None, Method: Plate incorporation); “inactive; negative” (Test System: Ames Salmonella typhimurium, Strain/Indicator: TA98, Metabolic Activation: Rat, Liver, S-9, Method: Plate incorporation). Besides, the mutagenic call (Test System: Ames Salmonella typhimurium, Strain/Indicator: TA100, Metabolic Activation: None, Method: Plate incorporation) was “inactive; negative”; the mutagenic call (Test System: Ames Salmonella typhimurium, Strain/Indicator: TA100, Metabolic Activation: Rat, Liver, S-9, Method: Plate incorporation) was “inactive; negative”; the mutagenic call (Test System: Ames Salmonella typhimurium, Strain/Indicator: TA1535, Metabolic Activation: None, Method: Plate incorporation) is “inactive; negative”; the mutagenic call (Test System: Ames Salmonella typhimurium, Strain/Indicator: TA1535, Metabolic Activation: Rat, Liver, S-9, Method: Plate incorporation) is “inactive; negative”; the mutagenic call (Test System: Ames Salmonella typhimurium, Strain/Indicator: TA1537, Metabolic Activation: None, Method: Plate incorporation) was “inactive; negative”; the mutagenic call (Test System: Ames Salmonella typhimurium, Strain/Indicator: TA1537, Metabolic Activation: Rat, Liver, S-9, Method: Plate incorporation) was “inactive; negative”. Besides, the mutagenic call is, setting by setting: (Test System: E. coli, Strain/Indicator: WP2uvrA-, Metabolic Activation: None, Method: Plate incorporation) “inactive; negative”; (Test System: E. coli, Strain/Indicator: WP2uvrA-, Metabolic Activation: Rat, Liver, S-9, Method: Plate incorporation) “inactive; negative”.

Turning to `Nc1ccc(CCc2ccc(N)cc2)cc1`, the mutagenic call was “inactive; negative” under setting [2]; “active; positive” (Test System: AMES SALMONELLA TYPHIMURIUM, Strain/Indicator: TA98, Metabolic Activation: RAT, LIVER, S-9, AROCLOR 1254, Method: STANDARD PLATE); “inactive; negative” under setting [4]; “active; positive” (Test System: AMES SALMONELLA TYPHIMURIUM, Strain/Indicator: TA100, Metabolic Activation: RAT, LIVER, S-9, AROCLOR 1254, Method: STANDARD PLATE).

Take `Nc1nc(-c2ccc([N+](=O)[O-])cc2)nc2c1ncn2-c1ccc([N+](=O)[O-])cc1`: the mutagenic call was “active; positive” (Test System: AMES SALMONELLA TYPHIMURIUM, Strain/Indicator: TA98(1,8-DNP), Metabolic Activation: NONE, Method: PREINCUBATION); “active; positive” (Test System: AMES SALMONELLA TYPHIMURIUM, Strain/Indicator: TA98(1,8-DNP), Metabolic Activation: RAT, LIVER, S-9, PCB, Method: PREINCUBATION); “active; positive” (Test System: AMES SALMONELLA TYPHIMURIUM, Strain/Indicator: TA98(NR), Metabolic Activation: NONE, Method: PREINCUBATION); “active; positive” (Test System: AMES SALMONELLA TYPHIMURIUM, Strain/Indicator: TA98(NR), Metabolic Activation: RAT, LIVER, S-9, PCB, Method: PREINCUBATION); “active; positive” under setting [1]; “active; positive” (Test System: AMES SALMONELLA TYPHIMURIUM, Strain/Indicator: TA98, Metabolic Activation: RAT, LIVER, S-9, PCB, Method: PREINCUBATION). The mutagenic call is, setting by setting: (Test System: AMES SALMONELLA TYPHIMURIUM, Strain/Indicator: TA100(1,8-DNP), Metabolic Activation: NONE, Method: PREINCUBATION) “active; positive”; (Test System: AMES SALMONELLA TYPHIMURIUM, Strain/Indicator: TA100(1,8-DNP), Metabolic Activation: RAT, LIVER, S-9, PCB, Method: PREINCUBATION) “inactive; negative”; (Test System: AMES SALMONELLA TYPHIMURIUM, Strain/Indicator: TA100(NR), Metabolic Activation: NONE, Method: PREINCUBATION) “active; positive”; (Test System: AMES SALMONELLA TYPHIMURIUM, Strain/Indicator: TA100(NR), Metabolic Activation: RAT, LIVER, S-9, PCB, Method: PREINCUBATION) “inactive; negative”; under setting [3], “active; positive”; (Test System: AMES SALMONELLA TYPHIMURIUM, Strain/Indicator: TA100, Metabolic Activation: RAT, LIVER, S-9, PCB, Method: PREINCUBATION) “active; positive”. For the same compound, the mutagenic call (Test System: AMES SALMONELLA TYPHIMURIUM, Strain/Indicator: YG1020, Metabolic Activation: NONE, Method: PREINCUBATION) is “active; positive”; the mutagenic call (Test System: AMES SALMONELLA TYPHIMURIUM, Strain/Indicator: YG1020, Metabolic Activation: RAT, LIVER, S-9, PCB, Method: PREINCUBATION) was “active; positive”; the mutagenic call (Test System: AMES SALMONELLA TYPHIMURIUM, Strain/Indicator: YG1021, Metabolic Activation: NONE, Method: PREINCUBATION) was “active; positive”; the mutagenic call (Test System: AMES SALMONELLA TYPHIMURIUM, Strain/Indicator: YG1021, Metabolic Activation: RAT, LIVER, S-9, PCB, Method: PREINCUBATION) is “active; positive”; the mutagenic call (Test System: AMES SALMONELLA TYPHIMURIUM, Strain/Indicator: YG1024, Metabolic Activation: NONE, Method: PREINCUBATION) was “active; positive”; the mutagenic call (Test System: AMES SALMONELLA TYPHIMURIUM, Strain/Indicator: YG1024, Metabolic Activation: RAT, LIVER, S-9, PCB, Method: PREINCUBATION) was “active; positive”. Also, the mutagenic call by setting is: (Test System: AMES SALMONELLA TYPHIMURIUM, Strain/Indicator: YG1025, Metabolic Activation: NONE, Method: PREINCUBATION) “active; positive”; (Test System: AMES SALMONELLA TYPHIMURIUM, Strain/Indicator: YG1025, Metabolic Activation: RAT, LIVER, S-9, PCB, Method: PREINCUBATION) “active; positive”; (Test System: AMES SALMONELLA TYPHIMURIUM, Strain/Indicator: YG1026, Metabolic Activation: NONE, Method: PREINCUBATION) “active; positive”; (Test System: AMES SALMONELLA TYPHIMURIUM, Strain/Indicator: YG1026, Metabolic Activation: RAT, LIVER, S-9, PCB, Method: PREINCUBATION) “active; positive”; (Test System: AMES SALMONELLA TYPHIMURIUM, Strain/Indicator: YG1029, Metabolic Activation: NONE, Method: PREINCUBATION) “active; positive”; (Test System: AMES SALMONELLA TYPHIMURIUM, Strain/Indicator: YG1029, Metabolic Activation: RAT, LIVER, S-9, PCB, Method: PREINCUBATION) “active; positive”.

Consider `Cc1cccc2cc3ccc4cccc5ccc(c12)c3c45`, for which the mutagenic call is, setting by setting: (Test System: AMES SALMONELLA TYPHIMURIUM, Strain/Indicator: TA100, Metabolic Activation: RAT, INTACT HEPATOCYTES, AROCLOR 1254, Method: PREINCUBATION) “inactive; negative”; (Test System: AMES SALMONELLA TYPHIMURIUM, Strain/Indicator: TA100, Metabolic Activation: RAT, NADPH-FORTIFIED HOMOGENIZED HEPATOCYTES, AROCLOR 1254, Method: PREINCUBATION) “active; positive”.
